These compounds were tested against T1, human FXR (Homo sapiens, UniProt Q96RI1) (assay: transient human FXR/Gal4-luciferase reporter assay). Conditions: Gal4-hFXR (ligand binding domain) fusion transiently transfected in HEK293 Gal4-luciferase reporter cells; overnight incubation; response as percentage of 8 μM GW-4064 control.
T1 construct: expressed in transfected cells
T1 sequence (Q96RI1 262-486 limits assumed): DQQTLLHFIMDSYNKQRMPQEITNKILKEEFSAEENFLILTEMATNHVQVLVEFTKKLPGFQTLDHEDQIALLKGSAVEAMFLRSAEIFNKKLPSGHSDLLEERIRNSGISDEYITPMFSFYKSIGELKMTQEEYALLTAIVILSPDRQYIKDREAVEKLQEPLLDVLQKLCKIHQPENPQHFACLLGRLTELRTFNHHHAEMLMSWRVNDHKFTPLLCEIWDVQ
Type: cell-based
Experimental: A Gal4-hFXR fusion construct reporter system was used as the primary assay to characterize compound activity. A construct including 5 copies of the Gal4 promoter response element upstream of a firefly luciferase reporter cDNA was stably expressed in HEK293 cells. This reporter cell line was maintained in Dulbecco's Modified Eagle's medium (DMEM; Gibco) supplemented with 1% penicillin-streptomycin (P/S) solution, 500 μg/ml Zeocin and 10% charcoal/dextran-treated fetal bovine serum (cs-FBS) at 37° C. in a humidified 5% CO2 atmosphere. Another plasmid was constructed in which the human cytomegalovirus promoter in the pcDNA3.1 vector directs the expression of the cDNA encoding a fusion protein comprised of the DNA binding domain from the Gal4 transcription factor fused to the ligand binding domain from human FXR.
The day prior to transfection, the reporter cells in culture are detached from the plate with trypsin and plated into a T75 flask at a sufficient density to achieve approximately 90% confluence the next morning. The transfection reagents are prepared by separately diluting 25 μg of the pcDNA3.1-Gal4-FXR plasmid into 1.87 mL of Opti-MEM (Thermo-Fisher), and 40 μL of Lipofectamine 2000 (Thermo-Fisher) into 1.87 mL of Opti-MEM, and then adding the diluted DNA solution into the diluted Lipofectamine 2000 solution and incubating at room temperature for 15-20 minutes. The mixture is further diluted with 10 ml of a solution comprised of DMEM, 10% cs-FBS, and 1% P/S immediately prior to transferring to the cells. The maintenance culture media is aspirated from the cells and the final transfection mixture is added before the cells are incubated overnight at 37° C. in a humidified 5% CO2 atmosphere. This protocol can be scaled up, and the transiently transfected cells can be cryopreserved in an assay-ready format.
For compound testing, 100 nL of the compounds (serial dilutions in DMSO) are dispensed with an Echo acoustic dispenser (Labcyte) into the wells of a Corning/Costar clear bottom 384-well white plate. The transfected cells are harvested, counted, and diluted such that 10-25,000 cells in 25 μL are plated into each well of the 384-well compound assay plate. The compound-treated cells are incubated overnight at 37° C. in a humidified 5% CO2 atmosphere. The next morning 25 μL of Steady-Glo (Promega) are added to each well of the plate, the mixture is incubated for 15 min. with shaking, and luminescence is measured on an Envision (Perkin Elmer) plate reader.

| Structure (SMILES) | EC50 |
| --- | --- |
| COC(=O)/C=C/c1cccc(N(CC23CCC(c4nc(C)no4)(CC2)CC3)C(=O)C2CC2)c1 [Example 21, methyl (E)-3-(3-(N-((4-(3-methyl-1,2,4-oxadiazol-5-yl)bicyclo[2.2.2]octan-1-yl)methyl)cyclopropanecarboxamido)phenyl) acrylate] | 2440 nM |
| COC(=O)/C=C/c1cccc(N(CC23CCC(c4nc(C)no4)(CC2)CC3)C(=O)C(C)C)c1 [Example 22, methyl (E)-3-(3-(N-((4-(3-methyl-1,2,4-oxadiazol-5-yl)bicyclo[2.2.2]octan-1-yl)methyl)isobutyramido)phenyl)acrylate] | 849 nM |
| COC(=O)/C=C/c1cccc(N(CC23CCC(c4nc(C)no4)(CC2)CC3)C(=O)C2CCOCC2)c1 [Example 23, Methyl (E)-3-(3-(N-((4-(3-methyl-1,2,4-oxadiazol-5-yl)bicyclo[2.2.2]octan-1-yl)methyl)tetrahydro-2H-pyran-4-carboxamido)phenyl)acrylate] | 920 nM |
| COC(=O)/C=C/c1cccc(N(CC23CCC(c4nc(C)no4)(CC2)CC3)C(=O)C2CCCCCC2)c1 [Example 24, methyl (E)-3-(3-(N-((4-(3-methyl-1,2,4-oxadiazol-5-yl)bicyclo[2.2.2]octan-1-yl)methyl)cycloheptanecarboxamido)phenyl) acrylate] | 150 nM |
| COC(=O)/C=C/c1cccc(N(CC23CCC(c4nc(C)no4)(CC2)CC3)C(=O)C23CC(F)(C2)C3)c1 [Example 25, methyl (E)-3-(3-(3-fluoro-N-((4-(3-methyl-1,2,4-oxadiazol-5-yl)bicyclo[2.2.2]octan-1-yl)methyl)bicyclo[1.1.1]pentane-1-carboxamido)phenyl)acrylate] | 123 nM |
| COC(=O)/C=C/c1cccc(N(CC23CCC(c4nc(C)no4)(CC2)CC3)C(=O)C2CC(F)(F)C2)c1 [Example 26, methyl (E)-3-(3-(3,3-difluoro-N-((4-(3-methyl-1,2,4-oxadiazol-5-yl)bicyclo[2.2.2]octan-1-yl)methyl)cyclobutane-1-carboxamido)phenyl)acrylate] | 302 nM |
| Cc1noc(C23CCC(CN(C(=O)C4CCCCC4)c4cccc(/C=C/C(=O)N(C)C)c4)(CC2)CC3)n1 [Example 27, (E)-N-(3-(3-(dimethylamino)-3-oxoprop-1-en-1-yl)phenyl)-N-((4-(3-methyl-1,2,4-oxadiazol-5-yl)bicyclo[2.2.2]octan-1-yl)methyl)cyclohexanecarboxamide] | 4460 nM |
| COC(=O)/C=C/c1cccc(N(CC23CCC(c4ccc(C5CC5)cc4)(CC2)CC3)C(=O)C2CC2)c1 [Example 28, Methyl (E)-3-(3-(N-((4-(4-cyclopropylphenyl)bicyclo[2.2.2]octan-1-yl)methyl)cyclopropanecarboxamido)phenyl)acrylate] | 947 nM |
| COC(=O)/C=C/c1cccc(N(CC23CCC(c4ccc(C5CC5)cc4)(CC2)CC3)C(=O)C2CCCCC2)c1 [Example 29, Methyl (E)-3-(3-(N-((4-(4-cyclopropylphenyl)bicyclo[2.2.2]octan-1-yl)methyl)cyclohexanecarboxamido)phenyl)acrylate] | 161 nM |
| COC(=O)C1=Cc2cccc(N(CC34CCC(c5ccc(C6CC6)cc5)(CC3)CC4)C(=O)C3CCCCC3)c2CC1 [Example 30, Methyl 5-(N-((4-(4-cyclopropylphenyl)bicyclo[2.2.2]octan-1-yl)methyl)cyclohexanecarboxamido)-3,4-dihydronaphthalene-2-carboxylate] | 195 nM |
| COC(=O)C1=Cc2cccc(N(CC34CCC(c5ccc(C6CC6)cc5)(CC3)CC4)C(=O)C3CC3)c2CC1 [Example 31, methyl 5-(N-((4-(4-cyclopropylphenyl)bicyclo[2.2.2]octan-1-yl)methyl)cyclopropanecarboxamido)-3,4-dihydronaphthalene-2-carboxylate] | 796 nM |
| COC(=O)C1=Cc2cccc(N(CC34CCC(c5ccc(C6CC6)cc5)(CC3)CC4)C(=O)C(C)C)c2CC1 [Example 32, methyl 5-(N-((4-(4-cyclopropylphenyl)bicyclo[2.2.2]octan-1-yl)methyl)isobutyramido)-3,4-dihydronaphthalene-2-carboxylate] | 466 nM |
| COC(=O)/C=C/c1cccc(N(CC23CCC(c4nc5ccccc5s4)(CC2)CC3)C(=O)C2CC2)c1 [Example 33, Methyl (E)-3-(3-(N-((4-(benzo[d]thiazol-2-yl)bicyclo[2.2.2]octan-1-yl)methyl)cyclopropanecarboxamido)phenyl)acrylate] | 414 nM |
| COC(=O)/C=C/c1cccc(N(CC23CCC(c4nc5ccccc5s4)(CC2)CC3)C(=O)C2CCCCC2)c1 [Example 34, Methyl (E)-3-(3-(N-((4-(benzo[d]thiazol-2-yl)bicyclo[2.2.2]octan-1-yl)methyl)cyclohexanecarboxamido)phenyl)acrylate] | 222 nM |
| COc1ccc(C23CCC(CN(C(=O)C4CCCCC4)c4cccc(/C=C/c5nc(C)no5)c4)(CC2)CC3)cc1 [Example 35, (E)-N-((4-(4-methoxyphenyl)bicyclo[2.2.2]octan-1-yl)methyl)-N-(3-(2-(3-methyl-1,2,4-oxadiazol-5-yl)vinyl)phenyl)cyclohexanecarboxamide] | 446 nM |
| COC(=O)/C=C(\C)c1cccc(N(CC23CCC(c4ccc(C5CC5)cc4)(CC2)CC3)C(=O)C2CC2)c1 [Example 36, Methyl (E)-3-(3-(N-((4-(4-cyclopropylphenyl)bicyclo[2.2.2]octan-1-yl)methyl)cyclopropanecarboxamido)phenyl)but-2-enoate] | 1780 nM |
| COC(=O)/C=C(\C)c1cccc(N(CC23CCC(c4ccc(C5CC5)cc4)(CC2)CC3)C(=O)C2CCCCC2)c1 [Example 37, Methyl (E)-3-(3-(N-((4-(4-cyclopropylphenyl)bicyclo[2.2.2]octan-1-yl)methyl)cyclohexanecarboxamido)phenyl)but-2-enoate] | 498 nM |
| COC(=O)/C=C/c1cccc(N(CC23CCC(c4ccc(C(C)C)cc4)(CC2)CC3)C(=O)C2CCCCC2)c1 [Example 38, Methyl (E)-3-(3-(N-((4-(4-isopropylphenyl)bicyclo[2.2.2]octan-1-yl)methyl)cyclohexanecarboxamido)phenyl)acrylate] | 196 nM |
| COC(=O)/C=C/c1cccc(N(CC23CCC(c4ccc(C(C)C)cc4)(CC2)CC3)C(=O)C2CC2)c1 [Example 39, Methyl (E)-3-(3-(N-((4-(4-isopropylphenyl)bicyclo[2.2.2]octan-1-yl)methyl)cyclopropanecarboxamido)phenyl)acrylate] | 1430 nM |
| COC(=O)C1=Cc2cccc(N(CC34CCC(c5nc(C)no5)(CC3)CC4)C(=O)C3CCCCC3)c2CC1 [Example 40, Methyl 5-(N-((4-(3-methyl-1,2,4-oxadiazol-5-yl)bicyclo[2.2.2]octan-1-yl)methyl)cyclohexanecarboxamido)-3,4-dihydronaphthalene-2-carboxylate] | 1070 nM |
| COC(=O)/C=C/c1cccc(N(CC23CCC(c4nc(N5CCOCC5)no4)(CC2)CC3)C(=O)C2CCCCC2)c1 [Example 42, Methyl (E)-3-(3-(N-((4-(3-morpholino-1,2,4-oxadiazol-5-yl)bicyclo[2.2.2]octan-1-yl)methyl)cyclohexanecarboxamido)phenyl)acrylate] | 118 nM |
